Molecules are shown by their SMILES. ± gives the expanded uncertainty stated by the source.

The conditions of series [1]: DTA.
Series [2] is described as follows: Molar enthalpy of transition or fusion. The note with it: DSC.

Consider `NC(N)=Nc1nc(CSCC/C(N)=N/S(N)(=O)=O)cs1` [famotidine], for which the Normal melting temperature in series [1] (Crystal 1) stood at 170.60 ± 0.6 °C; in series [1] (Metastable crystal) it was 162.90 ± 0.9 °C. Further, the “Molar enthalpy of transition or fusion” value was determined as 13.2 ± 0.43 kcal/mol in series [2] (Crystal 1) and 12.2 ± 0.813 kcal/mol in series [2] (Metastable crystal).
